This test deals with calcium ion-activated chloride channel (Xenopus laevis, UniProt B5SVV6). Put plainly: Patch clamp method: two-electrode voltage clamp recording on Xenopus laevis eggs, calcium-dependent chloride channel blocking activity. The class given is cell-based. As to the method:
Meanwhile, with regard to the novel compound represented by formula 1 according to the present invention, calcium-dependent chloride channel blocking activity was assessed by a patch clamp method according to the following experimental examples. Eggs of African Xenopus laevis were collected through surgical operation, immersed in a Barth's solution [88 mM NaCl, 1 mM KCl, 2.4 mM NaHCO3, 10 mM HEPES, 0.82 mM MgSO4, 0.33 mM Ca(NO3)2, 0.91 mM CaCl2 (all of which were purchased from Sigma Co.); 10 units/mL peniciline, and streptomycin (purchased from Gibco Co.)], and cultured in an incubator at a constant temperature of 18° C. Such prepared eggs were treated using 10 μM ionomycin (Sigma) for 30 minutes. A recording solution (96 mM NaCl, 2 mM KCl, 10 mM HEPES, 3 mM NaOH, 2 mM MgCl2, 0.5 mM EGTA, Sigma) was prepared and the eggs treated with ionomycin were rinsed using the prepared recording solution. Further, the eggs, after treating with 1 μM thapsigargin (Sigma) for 2 hours, were rinsed again using the recording solution to prepare eggs for recording. Next, an intracellular solution was prepared by adding 0.5 mM EGTA and 1 μM chelerythrine (Sigma) to 1 M KCl solution, then, charged in a glass micro-electrode. One of the prepared eggs was placed on a chamber and two micro-electrodes were stuck into both sides of the egg while dripping the recording solution over the egg. According to a protocol corresponding to purposes for experiments, two-electrode voltage clamp recording was executed to measure an electrical current.
Background: The patch-clamp technique gives a direct electrical read-out from membranes.

[1] abbreviates: calcium ion-activated chloride channel, Xenopus laevis eggs, two-electrode voltage clamp.
Setting [2] is: Table 2 upper part, naphthyl compounds of formula 1b (scaffold drawing 37; * = position of naphthyl attachment).

pIC50: −log10 of the molar value.

Sequence of calcium ion-activated chloride channel (B5SVV6 entry or part of it): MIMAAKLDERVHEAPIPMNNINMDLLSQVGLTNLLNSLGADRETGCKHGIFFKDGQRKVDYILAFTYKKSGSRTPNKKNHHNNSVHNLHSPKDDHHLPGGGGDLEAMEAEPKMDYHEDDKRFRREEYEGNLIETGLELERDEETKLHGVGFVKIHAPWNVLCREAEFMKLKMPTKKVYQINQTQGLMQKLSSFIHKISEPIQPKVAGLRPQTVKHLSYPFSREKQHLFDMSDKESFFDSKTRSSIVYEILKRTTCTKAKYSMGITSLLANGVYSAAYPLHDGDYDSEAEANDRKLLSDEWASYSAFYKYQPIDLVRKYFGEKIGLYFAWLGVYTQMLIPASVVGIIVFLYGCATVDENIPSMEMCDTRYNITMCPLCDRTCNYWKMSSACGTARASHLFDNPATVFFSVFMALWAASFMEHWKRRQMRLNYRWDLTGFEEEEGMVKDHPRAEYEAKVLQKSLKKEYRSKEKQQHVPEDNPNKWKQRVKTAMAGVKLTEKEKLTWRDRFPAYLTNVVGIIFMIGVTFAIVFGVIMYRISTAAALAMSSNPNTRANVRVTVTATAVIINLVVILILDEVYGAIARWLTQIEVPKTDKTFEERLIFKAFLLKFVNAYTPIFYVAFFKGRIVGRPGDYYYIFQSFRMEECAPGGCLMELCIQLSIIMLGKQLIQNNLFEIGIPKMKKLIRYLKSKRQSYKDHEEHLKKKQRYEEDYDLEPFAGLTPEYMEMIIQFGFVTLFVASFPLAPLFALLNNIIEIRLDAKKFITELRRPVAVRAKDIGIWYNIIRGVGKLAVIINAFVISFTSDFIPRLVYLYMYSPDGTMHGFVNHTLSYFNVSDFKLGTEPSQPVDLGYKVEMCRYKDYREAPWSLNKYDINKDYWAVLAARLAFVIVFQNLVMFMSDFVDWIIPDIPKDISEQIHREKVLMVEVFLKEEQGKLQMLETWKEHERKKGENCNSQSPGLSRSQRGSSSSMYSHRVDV

As for `O=C(O)c1cccc([N+](=O)[O-])c1Nc1ccc(Cl)c2ccccc12` [Compound No. 29, N-((4-chloro)naphthyl)-3-nitroanthranilic acid], under setting [1], the negative-log IC50 (pIC50) is 4.78.
The same measure, in the same setting: the figure for `O=C(O)c1ccc([N+](=O)[O-])cc1Nc1cccc2ccccc12` [Compound No. 31, N-naphthyl-4-nitroanthranilic acid] is 5.07.
Take `O=C(O)c1ccc([N+](=O)[O-])cc1Nc1ccc(Cl)c2ccccc12` [Compound No. 33, N-((4-chloro)naphthyl)-4-nitroanthranilic acid]: the negative logarithm of the IC50 (pIC50) was 5.32 under setting [2] and 5.32 under setting [1].
`O=C(O)c1ccc([N+](=O)[O-])cc1Nc1ccc(Br)c2ccccc12` [Compound No. 34, N-((4-bromo)naphthyl)-4-nitroanthranilic acid]: the pIC50 under setting [1] was 5.00.
Same read-out and setting: in the case of `O=C(O)c1ccc([N+](=O)[O-])cc1Nc1ccc([N+](=O)[O-])c2ccccc12` [Compound No. 35, N-((4-nitro)naphthyl)-4-nitroanthranilic acid] it was 4.67.
Take `COc1ccc(Nc2cc([N+](=O)[O-])ccc2C(=O)O)c2ccccc12` [Compound No. 36, N-((4-methoxy)naphthyl)-4-nitroanthranilic acid]: the negative logarithm of the IC50 (pIC50) by setting is: under setting [2], 4.82; under setting [1], 4.82.
In the case of `O=C(O)c1cc([N+](=O)[O-])ccc1Nc1cccc2ccccc12` [Compound No. 40, N-naphthyl-5-nitroanthranilic acid], the negative-log IC50 (pIC50) reads like this: under setting [2], 5.30; under setting [1], 5.30.
Regarding `O=C(O)c1cc([N+](=O)[O-])ccc1Nc1ccc(F)c2ccccc12` [Compound No. 41, N-((4-fluoro)naphthyl)-5-nitroanthranilic acid], the pIC50 under setting [1] was 5.52.
`O=C(O)c1cc([N+](=O)[O-])ccc1Nc1ccc(Cl)c2ccccc12` [Compound No. 42, N-((4-chloro)naphthyl)-5-nitroanthranilic acid]: the pIC50 under setting [1] was 5.10.
In the case of `O=C(O)c1cc([N+](=O)[O-])ccc1Nc1ccc(Br)c2ccccc12` [Compound No. 43, N-((4-bromo)naphthyl)-5-nitroanthranilic acid], the pIC50 is, setting by setting: under setting [2], 5.82; under setting [1], 5.82.
Regarding `O=C(O)c1cc([N+](=O)[O-])ccc1Nc1ccc(I)c2ccccc12` [Compound No. 44, N-((4-iodo)naphthyl)-5-nitroanthranilic acid], under setting [1], the negative-log IC50 (pIC50) was 5.92.
As for `COc1ccc2ccccc2c1Nc1ccc([N+](=O)[O-])cc1C(=O)O` [Compound No. 45, N-((2-methoxy)naphthyl)-5-nitroanthranilic acid], the negative logarithm of the IC50 (pIC50) reads like this: under setting [2], 5.04; under setting [1], 5.04.
In the case of `COc1cc(Nc2ccc([N+](=O)[O-])cc2C(=O)O)c2ccccc2c1` [Compound No. 46, N-((3-methoxy)naphthyl)-5-nitroanthranilic acid], the negative logarithm of the IC50 (pIC50) is, setting by setting: under setting [2], 5.74; under setting [1], 5.74.
Turning to `COc1ccc(Nc2ccc([N+](=O)[O-])cc2C(=O)O)c2ccccc12` [Compound No. 47, N-((4-methoxy)naphthyl)-5-nitroanthranilic acid], the pIC50 under setting [2] is 5.64 and the pIC50 under setting [1] was 5.64.
For the compound `COc1cccc2c(Nc3ccc([N+](=O)[O-])cc3C(=O)O)cccc12` [Compound No. 48, N-((5-methoxy)naphthyl)-5-nitroanthranilic acid], the pIC50 under setting [2] is 5.04 and the negative-log IC50 (pIC50) under setting [1] is 5.04.
Take `COc1ccc2c(Nc3ccc([N+](=O)[O-])cc3C(=O)O)cccc2c1` [Compound No. 49, N-((6-methoxy)naphthyl)-5-nitroanthranilic acid]: the pIC50 reads like this: under setting [2], 5.94; under setting [1], 5.94.
Consider `COc1ccc2cccc(Nc3ccc([N+](=O)[O-])cc3C(=O)O)c2c1` [Compound No. 50, N-((7-methoxy)naphthyl)-5-nitroanthranilic acid], for which the negative-log IC50 (pIC50) under setting [2] was 5.47 and the negative logarithm of the IC50 (pIC50) under setting [1] is 5.47.
For the compound `COc1cccc2cccc(Nc3ccc([N+](=O)[O-])cc3C(=O)O)c12` [Compound No. 51, N-((8-methoxy)naphthyl)-5-nitroanthranilic acid], the negative logarithm of the IC50 (pIC50) runs as follows: under setting [2], 5.07; under setting [1], 5.07.
On to `O=C(O)c1ccc(C(F)(F)F)cc1Nc1ccc(Cl)c2ccccc12` [Compound No. 66, N-((4-chloro)naphthyl)-4-trifluoromethylanthranilic acid], for which the pIC50 under setting [1] was 5.24.
On the same count and under the same terms, in the case of `O=C(O)c1c(Nc2ccc(Br)c3ccccc23)cccc1[N+](=O)[O-]` [Compound No. 70, N-((4-bromo)naphthyl)-6-nitroanthranilic acid] it was 5.07.
On to `O=C(O)c1cc([N+](=O)[O-])ccc1Nc1ccccc1` [drawing 38 R1=5-NO2 R3=H, reference compound], for which the negative-log IC50 (pIC50) (Table 2 lower part, comparison phenyl anthranilic acid compounds of Korean Patent Registration No. 892591 (scaffold drawing 38)) was 4.37.
As for “N-naphthyl-3-nitroanthranilic acid [Compound No. 28]”, the pIC50 under setting [1] was 4.27.
On the same count and under the same terms, in the case of “N-naphthyl-4-trifluoromethylanthranilic acid [Compound No. 65]” it was 4.27.

The pIC50 is the IC50 on a negative log10 scale, so that one unit is a factor of ten.

These data come from US9834537B2, “Compounds as chloride channel blocking agent” (Korea Institute of Science and Technology, priority 2013, dated 2017).
